Values belong to the molecule of their own block, whether it stands above or below them.
Columns and labels:
[1] = Test B: In-vitro competitive aortic tissue binding assay; settings: 100 μM compound, competition with [14C]4-amino-N-[(1S)-1-cyano-2-(4′-cyanobiphenyl-4-yl)ethyl]tetrahydro-2H-pyran-4-carboxamide, rat aortic homogenate
Method: Test B: In-Vitro Competitive Aortic Tissue Binding Assay
Aortic homogenate was prepared from the thoracic aortae of Han Wistar rats. Freshly isolated thoracic aortae were frozen, and later thawed and stripped of non-elastic material. […] Homogenate concentration was adjusted to 30 mg/mL in Puck's saline, and aliquots were stored at −80° C. until use. Positive and negative control compounds and test compounds were made up to 100 mM in DMSO, and added to 1 mL aliquots of aortic homogenate in Puck's saline for a final concentration of 100 μM. Homogenate samples were pre-incubated with test compounds at 37° C., rotating, overnight. [^14C]4-Amino-N-[(1S)-1-cyano-2-(4′-cyanobiphenyl-4-yl)ethyl]tetrahydro-2H-pyran-4-carboxamide was then added to all samples to a final concentration of 100 μM, and samples were incubated at 37° C., rotating, for a further 2 h. Protein was precipitated from each sample by the addition of 10 mL acetone, pre-chilled to −20° C. Samples were left overnight at −20° C. to allow complete precipitation. […] Precipitate was washed by resuspension in 10 mL 80% methanol in distilled water, and re-pelleted by centrifugation at 4,500× g at 4° C. for 20 min. […] After final wash, precipitate was air-dried, and dissolved overnight in 1 mL NCSII Tissue Solubiliser. 1 mL aliquots of supernatants were added to 5 mL Ultima Gold scintillation fluid (Perkin Elmer, MA, U.S.A.), and 1 mL solubilised pellets were added to 5 mL Hionic-Fluor scintillation fluid (Perkin Elmer, MA, U.S.A.). Radioactivity of samples was determined on a Beckman LS6500 multipurpose scintillation counter (Beckman Coulter, IN, U.S.A.). […] Duplicate samples were tested for each compound on each experimental occasion, and at least two experiments were run for each test compound. […] 1-way ANOVA and Bonferroni's multiple comparison tests were performed to calculate significance of differences from vehicle control.

[2] = molecular target: T1, recombinant human DPP1 (rhDPP1) (Homo sapiens (Human), UniProt P53634); experiment: Test A1: Fluorescence assay for recombinant human (RH) DPP1; format: biochemical; settings: Test A1 (Examples 1-35); rhDPP1 ~50 pM, 100 μM H-Gly-Arg-AMC, pH 5.0, 22° C.
T1 sequence (P53634 231-394): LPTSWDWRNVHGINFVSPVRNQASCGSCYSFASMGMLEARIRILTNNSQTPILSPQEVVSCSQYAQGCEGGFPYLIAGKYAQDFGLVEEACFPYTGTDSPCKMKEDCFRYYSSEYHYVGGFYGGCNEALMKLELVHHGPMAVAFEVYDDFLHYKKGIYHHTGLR
T1 sequence (P53634 25-134): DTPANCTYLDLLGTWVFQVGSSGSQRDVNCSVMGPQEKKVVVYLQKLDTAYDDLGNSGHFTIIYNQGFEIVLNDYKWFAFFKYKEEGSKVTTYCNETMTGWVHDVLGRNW
T1 sequence (P53634 395-463): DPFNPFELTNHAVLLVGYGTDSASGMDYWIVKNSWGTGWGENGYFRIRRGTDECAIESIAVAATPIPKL
Method: Test A1: Fluorescence Assay for Recombinant Human (RH) DPP1
The activity of DPP1 was determined by measuring the enzymatic release of aminomethyl coumarin (AMC) from the peptide substrate (H-Gly-Arg-AMC), which leads to an increase in fluorescence intensity at λex=350 nm and λem=450 nm. The assay was carried out in black 384 well plates in a final volume of 50 μl at 22° C. The assay conditions contained the following: 25 mM piperazine buffer pH 5.0; 50 mM NaCl, 5 mM DTT; 0.01% (v/v) Triton X-100; 100 μM H-Gly-Arg-AMC and rhDPP1 (˜50 pM). […] Routinely, inhibitors were pre-incubated with rhDPP1 for 30-60 min prior to the addition of the peptide substrate to start the reaction for a further 60 min at 22° C.

[3] = molecular target: T1, recombinant human DPP1 (rhDPP1); experiment: Test A2: Fluorescence assay for recombinant human (RH) DPP1; format: biochemical; settings: Test A2 (Examples 36-37); 96.4 pM rhDPP1, 50 μM H-Gly-Arg-AMC, pH 5.0, rt
Method: Test A2: Fluorescence Assay for Recombinant Human (RH) DPP1
The activity of DPP1 was determined by measuring the enzymatic release of aminomethyl coumarin (AMC) from the peptide substrate (H-Gly-Arg-AMC), which leads to an increase in fluorescence intensity at λex=350 nm and λem=450 nm. The assay was carried out in black 384 well plates in a final volume of 10 μl at rt. The assay conditions contained the following: 25 mM piperazine buffer pH 5.0; 50 mM NaCl, 5 mM DTT; 0.005 (v/v) Triton X-100; 50 μM H-Gly-Arg-AMC and 96.4 pM rhDPP1 Potential inhibitors were diluted in DMSO to generate 100× of the final assay concentration. The compounds were tested at 10 concentrations with half-log dilution steps (highest concentration typically 1 μM) and with a final DMSO concentration of 1% (v/v). Routinely, inhibitors were pre-incubated with rhDPP1 for 30 min prior to the addition of the peptide substrate to start the reaction for a further 30 min. After incubation the plates were read in a fluorescence plate reader using the above emission and excitation wavelengths. The pIC50 were determined using a 4-paramater logistic equation in a non-linear curve fitting routine (Smartfit, Genedata Screener®). […]

[4] = Rat quantitative whole-body autoradiography (QWBA) studies, aortic retention; format: in vivo
[5] = literature (Schmidt et al. 1984); cited from earlier work

Aortic Tissue Binding [1]: No binder
Structure (SMILES): Cn1c(=O)oc2ccc(-c3ccc(C[C@@H](C#N)NC(=O)[C@@H]4CNCCCO4)cc3)cc21 [Example 2, (2S)-N-{(1S)-1-Cyano-2-[4-(3-methyl-2-oxo-2,3-dihydro-1,3-benzoxazol-5-yl)phenyl]ethyl}-1,4-oxazepane-2-carboxamide]

Structure (SMILES): N#C[C@H](Cc1ccc(-c2ccc(S(=O)(=O)N3CCC3)cc2)cc1)NC(=O)[C@@H]1CNCCCO1 [Example 31, (2S)-N-{(1S)-2-[4′-(Azetidin-1-ylsulfonyl)biphenyl-4-yl]-1-cyanoethyl}-1,4-oxazepane-2-carboxamide]
DPP1 activity, pIC50 [2]: 7.67

DPP1 activity, pIC50 [2]: 7.37
Structure (SMILES): N#C[C@H](Cc1ccc(-c2ccc(F)cc2)cc1)NC(=O)[C@@H]1CNCCCO1 [Example 32, (2S)-N-[(1S)-1-Cyano-2-(4′-fluorobiphenyl-4-yl)ethyl]-1,4-oxazepane-2-carboxamide]

DPP1 activity, pIC50 [2]: 7.21
Structure (SMILES): N#C[C@H](Cc1ccc(-c2ccc3scnc3c2)cc1)NC(=O)[C@@H]1CNCCCO1 [Example 33, (2S)-N-{(1S)-2-[4-(1,3-Benzothiazol-5-yl)phenyl]-1-cyanoethyl}-1,4-oxazepane-2-carboxamide]

Structure (SMILES): CC[C@@H](/C=C/C(=O)N1CCc2ccccc21)NC(=O)[C@@H]1CNCCCO1.O=C(O)C(F)(F)F [Example 36]
DPP1 activity, pIC50 [3]: 8.3

Structure (SMILES): CC(C)C[C@@H](/C=C/C(=O)N1CCc2ccccc21)NC(=O)[C@@H]1CNCCCO1.O=C(O)C(F)(F)F [Example 37, (2S)-2-[(2E,4S)-1-(2,3-Dihydro-1H-indol-1-yl)-6-methyl-1-oxohept-2-en-4-yl]-1,4-oxazepane-2-carboxamide trifluoroactetate]
DPP1 activity, pIC50 [3]: 8.28

Aortic Tissue Binding [1]: Binder
Structure (SMILES): N#Cc1ccc(-c2ccc(C[C@@H](C#N)NC(=O)[C@@H]3CCCCN3)cc2)cc1 [WO2009/074829 (Example 24)]

Aortic Tissue Binding [1]: Medium binder
Structure (SMILES): Cn1c(=O)oc2ccc(-c3ccc(C[C@@H](C#N)NC(=O)[C@@H]4CCCCN4)cc3)cc21 [WO2009/074829 (Example 96)]

Aortic Tissue Binding [1]: Strong binder reference | aortic retention in rat QWBA studies [4]: high level of aortic retention
Structure (SMILES): N#Cc1ccc(-c2ccc(C[C@@H](C#N)NC(=O)C3(N)CCOCC3)cc2)cc1 [WO2010/128324 (Ex. 3), 4-amino-N-[(1S)-1-cyano-2-(4′-cyanobiphenyl-4-yl)ethyl]tetrahydro-2H-pyran-4-carboxamide]

Aortic Tissue Binding [1]: Strong binder
Structure (SMILES): Cn1c(=O)oc2ccc(-c3ccc(C[C@@H](C#N)NC(=O)C4(N)CCOCC4)cc3)cc21 [WO2010/128324 (Example 17)]

Structure (SMILES): CC(c1ccc(Cl)c(Cl)c1)N1N=C(N)CC1=O (stereo not drawn) [muzolimine]
retention in the aorta in QWBA studies [5]: retained selectively in the aorta

Source: patent publication US10287258B2, “Certain (2S)-N-[(1S)-1-cyano-2-phenylethyl]-1,4-oxazepane-2-carboxamides as dipeptidyl peptidase 1 inhibitors” (AstraZeneca AB, priority 2014, dated 2019)
